Experimental data as given in patent US20240398841A1, “BLADDER PERFUSION PHARMACEUTICAL COMPOSITION, PREPARATION METHOD THEREFOR AND APPLICATION THEREOF” (priority 2020, published 2024).
Values joined by “and” are separate entries in the source; they are usually repeats but may differ in a detail not shown here. Identical values can stand only once. Counter-ions that a name gives are not always drawn.

Key:
bladder cancer = settings: TMX-101 gel formulation containing R837, bladder perfusion; cited from earlier work
[1] = test system: bladder in situ tumor (fLuc-MB49 cells); settings: mouse, in vivo
[2] = test system: MB49 bladder cancer in situ; assay: Pirarubicin (THP)/R837 mixed lyophilized powder in bladder perfusion treatment of bladder cancer, tumor mass (Example G2); format: in vivo, mice; settings: after two bladder perfusions, from tumor mass
Experimental: Example G2: Application of pirarubicin (THP) used in combination with R837 in the treatment of bladder cancer.
The mice were randomly divided into the following groups:
THP: perfusion of the pirarubicin solution dissolved in 5% glucose solution;
After two times of bladder perfusion treatment, the bladder cancer in the mice was obtained by dissection, and the tumor mass was recorded. […] The Guinness formula q=E(A+B)/(EA+EB−EA*EB) is used to calculate the drug synergy, wherein E(A+B) is the tumor inhibition rate in the compound formulation treatment group, and EA and EB are the tumor inhibition rates when the two components are used respectively.

[3] = test system: bladder in situ tumor (fLuc-MB49 cells); assay: Combined perfusion of EPI and R837 hydrochloride in different ratios for bladder in situ tumor, fluorescence imaging and survival (Example B4); format: in vivo, mice; settings: for Survival rate: 14th day
[4] = General formulation study of simple mixtures of epirubicin and imiquimod (stability, solubility versus pH); format: physicochemical
[5] = test system: MB49 bladder cancer in situ; assay: Doxorubicin (ADM)/R848 mixed lyophilized powder in bladder perfusion treatment of bladder tumor, tumor mass (Example G3); format: in vivo, mice; settings: after two bladder perfusions; compound formulation with hydroxypropyl methylcellulose as penetration enhancer
Experimental: Example G3: Application of doxorubicin (ADM) used in combination with resiquimod (R848) in the treatment of bladder tumor.
The in-situ models of bladder cancer in mice were established by the same method as in Example G1, the mixed lyophilized powder formulation of doxorubicin and […] was prepared for later use, and the mice were randomly divided into groups (Blank: perfusion of 5% glucose solution: ADM: perfusion of the […] solution dissolved in normal saline: R848: perfusion of the resiquimod suspension dispersed in 5% glucose solution: ADM+R848: perfusion of the mixed lyophilized powder formulation of […] and resiquimod dissolved in 5% glucose solution), wherein hydroxypropyl methylcellulose was added as a penetration enhancer component before the compound formulation was used for bladder perfusion treatment. After two times of the bladder perfusion in each group, the bladder cancer in the mice was obtained by dissection, and the tumor mass was recorded.

[6] = test system: bladder in situ tumor (fLuc-MB49 cells); assay: Combined perfusion of THP and R837 hydrochloride for bladder in situ tumor, in vivo fluorescence imaging and survival (Example B2); design: species or system mice; settings: until 35 days
[7] = 1-9 days, two perfusions; EPI 60 μg, R837 360 μg; compared with blank group
Experimental: Six mice in each of the four groups were perfused with the same dose of blank ultrapure water (ddH2O), R837 (360 μg), EPI (60 μg) and EPI (60 μg)+R837 (360 μg) for 1 hour, once a week, twice, and the body weight was recorded every other day. […] Next, we used a similar method to evaluate whether there was a usage range for the attenuation effect when EPI and R837 were used in combination in a mass ratio (1:10). Six mice in each of the four groups were perfused with the same dose of blank ultrapure water (ddH2O), R837 (600 μg), EPI (60 μg) and EPI (60 μg)+R837 (600 μg) for 1 hour, and the body weights was recorded every other day.

[8] = Day 0 (before the first perfusion)

For CC(C)Cn1cnc2c(N)nc3ccccc3c21 [Sample R837, imiquimod], the “safety in clinical trial” value (bladder cancer) is given as “good safety”, the “tumor fluorescence intensity / tumor inhibition effect” value [1] is given as “no significant tumor inhibition effect” and the tumor inhibition rate [2] is given as 38.33%. For the same molecule, the Survival rate [3] was 100%, the “Mean fluorescence intensity of bladder in situ tumor tissue, group Mean” value (from here on “Mean fluorescence intensity … group Mean”) [3, 8] was 1.877 10^5 and the “Mean fluorescence intensity … group Mean” value ([3]; Day 7) was 5.922 10^5. For the same molecule, the “Mean fluorescence intensity of bladder in situ tumor tissue (single mice)” value (shortened to “Mean fluorescence intensity … (single mice)”) ([3]; Day 7, listed as B4-2) was 6.37 10^5 and 5.49 10^5 and 5.35 10^5 and 6.92 10^5 and 6.05 10^5, the “Mean fluorescence intensity … group Mean” value ([3]; Day 14) was 9.287 10^5 and the “Mean fluorescence intensity … (single mice)” value ([3]; Day 14, listed as B4-2) was 7.97 10^5 and 10.2 10^5 and 9.04 10^5 and 12.7 10^5 and 7.53 10^5 and 8.28 10^5. The “pH above which imiquimod precipitates from the solution” value [4] was > 5.0.
COc1cccc2c1C(=O)c1c(O)c3c(c(O)c1C2=O)C[C@@](O)(C(=O)CO)C[C@@H]3O[C@H]1C[C@H](N)[C@H](O)[C@H](C)O1 [DOX, doxorubicin hydrochloride] showed a tumor inhibition rate [5] of 8.6%.
Work on COc1cccc2c1C(=O)c1c(O)c3c(c(O)c1C2=O)C[C@@](O)(C(=O)CO)C[C@@H]3O[C@H]1C[C@H](N)[C@H](O[C@@H]2CCCCO2)[C@H](C)O1 [THP, pirarubicin hydrochloride] yielded a tumor inhibition rate [2] of 28.23% and a Survival rate [6] of 60%.
In the case of COc1cccc2c1C(=O)c1c(O)c3c(c(O)c1C2=O)C[C@@](O)(C(=O)CO)C[C@@H]3O[C@H]1C[C@H](N)[C@@H](O)[C@H](C)O1 [EPI, epirubicin hydrochloride], the “body weights of the mice” value [7] is reported as “significantly lower”, the Survival rate [3] is reported as 67% and the “Mean fluorescence intensity … group Mean” value [3, 8] is reported as 1.957 10^5. For the same molecule, the “Mean fluorescence intensity … group Mean” value ([3]; Day 7) was 3.893 10^5, the “Mean fluorescence intensity … group Mean” value ([3]; Day 14) was 10.8 10^5 and the “Mean fluorescence intensity … (single mice)” value ([3]; Day 14, listed as B4-3, hydrochloride) was 12.8 10^5 and 10.9 10^5 and 8.7 10^5.
In the case of CCOCc1nc2c(N)nc3ccccc3c2n1CC(C)(C)O [Sample R848, resiquimod], the tumor inhibition rate [5] is reported as 21.8%.
